# Tested on: human bladder stroma fibroblasts
# Experiment: Cell work: fibroblast viability (prestoblue) after mitomycin C treatment
# Type: cell-based
# Conditions: 3 days of drug treatment
# Procedure: FIGS. 13(A) and (B) are graphs showing (A) relative cell count vs MMC concentrations (μg/mL), and (B) dose-response curve.
# In each well of a 96 well cell culture plate, 3000 human bladder stroma fibroblasts cells are seeded. After one day of seeding, different concentrations of mitomycin C dissolved in cell media (200 μL) were added to the well. After 3 days of drug treatment, the drug media was removed and the well added with 70 μL of a cell viability reagent, prestoblue, in the ratio of 9:1 (cell media: prestoblue).
smiles,measurement,value
"CO[C@@]12[C@H](COC(N)=O)C3=C(C(=O)C(C)=C(N)C3=O)N1C[C@@H]1N[C@@H]12 [MMC, mitomycin C]",GI50,about 0.115 μg/mL
same,minimum concentration of MMC required to cause death of / inhibit proliferation of fibroblasts,0.01 µg/mL

# Source: US11357651B2, “Stent assembly and method of preparing the stent assembly” (Nanyang Technological University, priority 2015, dated 2022)
